*: point of attachment. NHNH2 = NN*
Key:
Type in all cases: cell-based
[1] = system: HCT116 cells expressing EGFP; assay: Cas9-RNP delivery against EGFP (gene editing, plate reader), HCT116
Method: To generate an EGFP expressing HeLa cell line, HeLa cells were transfected with EGFP pDNA (pEGFP-C1, Clontech) and stable transfectants were selected with 400 μg/mL of G-418 (Millipore). Green clones were selected by epifluorescence microscopy and tested for EGFP expression stability through several passages. […] All other EGFP-expressing cell lines were obtained in a similar way from parent non-EGFP-expressing cell lines.
Cells expressing EGFP were seeded in a 96 well plate the day before the experiment at a concentration of 50,000 cell/mL (100 μL/w) in DMEM+10% FBS+1% Gln-Abt. For robotic library screening, the delivery of Cas9-RNP against EGFP (RNP designed to knock-out the gene encoding for the enhanced green fluorescent protein (EGFP)) was performed. For RNP assembly, 9.2 μL of crRNA and 9.2 μL of tracrRNA were mixed in 211.6 μL of Nuclease-Free Duplex Buffer (IDT), incubated for 5 min at 95° C. and slowly cooled at rt (see I. Lostalé-Seijo, et al. Peptide/Cas9 nanostructures for ribonucleoprotein cell membrane transport and gene edition, Chem. Sci., 2017). Cas9 protein was dissolved in DMEM at a final concentration of 4 μM and equal volumes of the RNA complex and Cas9 were mixed and incubated for 5 min at rt. 75 μL of the corresponding amphiphile concentrations were added to 5 μL of RNP at 2 μM. The mixture was shaken for 30 min at room temperature before the addition to the cells. The cell medium was aspirated, and cells were washed twice with PBS. Cells were covered with 30 μL of DMEM and 20 μL of the RNP/amphiphile complexes were added to the cells (final peptide concentrations=2.5, 5 and 10 μM; final Cas9-RNP concentration=50 nM) and incubated for 4 h. After the incubation, the medium was replaced by 100 μL of fresh DMEM supplemented with 10% FBS. The total EGFP fluorescence was quantified after 72 h in a plate reader (FIG. 2, Table 1 (right) and Table 6). All experiments were done in triplicate. […]
Tables 26-31 show the mean (triplicates) percentage of gene editing, accounted by GFP fluorescence intensity decrease (% of reduction), measured after the transfection of Cas9-RNP by different amphiphiles at different concentrations in a variety of cell lines. Background values, accounted by untreated control cells, were subtracted for processing.

Hela cells = assay: RLuc pDNA delivery, robotic library screening, HeLa
Method: Cells were seeded in a 96 well plate the day before the experiment at a concentration of 60,000 cell/mL (100 μL/w) in DMEM+10% FBS+1% Gln-Abt. For robotic library screening, the delivery of pDNA encoding for the expression of Renilla luciferase gene (RLuc, pRL-CMV (Promega, #E2261)) in six different cell lines was performed. […] The mixture was shaken for 30 min at room temperature before the addition to the cells. The cell medium was aspirated, and cells were washed twice with PBS. Finally, 50 μL of the complex's solution were added to the cells and incubated for 4 h. After the incubation, the medium was replaced by 100 μL of fresh DMEM supplemented with 10% FBS. 72 hours after transfection the DMEM was removed, cells were washed once with HBSS and 90 μL of HBSS were added to each well. Cells were incubated at 37° C. for 30 minutes. Then basal luminescence levels were read in a plate reader. Immediately, 10 μL of coelenterazine h in HBSS were added to each well (5 μM final concentration) and cells were incubated at 37° C. for 10 minutes. Finally, the total luminescence measurement of the plates was performed. Amphiphile transfection efficiency was compared and normalized to Lipofectamine® 2000 efficiency (value of 1 in Tables 1-5 and 7; bold numbers). All experiments were done in triplicate.
(§1) Tables 1-7: RLuc (pDNA) or EGFP (mRNA) expression levels were normalized to Lipofectamine reagents (value=1) and expressed as fold-times signal increase. In the case of siRNA, the siRNA treated cells fluorescence was compared with siMOCK control fluorescence, while Cas9-RNP mediated knockout was measured against the fluorescence of untreated cells. In both siRNA and Cas9-RNP, values are expressed as % fluorescence reduction. Amphiphile concentration was 5 μM in all cases. All experiments were performed in triplicate.
Tables 8-13 show the mean (triplicates) luminescent intensity (RLU) measured after the transfection of RLuc pDNA by different amphiphiles at different concentrations in a variety of cell lines. Background luminescence values, accounted by untransfected control cells, were subtracted for processing.

ARPE19 cells = assay: EGFP mRNA delivery, robotic library screening, ARPE19
Method: Cells were seeded in a 96 well plate the day before the experiment at a concentration of 50,000 cell/mL (100 μL/w) in DMEM+10% FBS+1% Gln-Abt. For robotic library screening, the delivery of EGFP-mRNA (from TriLink, fully substituted with 5-methoxyuridine, capped and polyadenylated; TriLink, CleanCap® EGFP mRNA (5moU), ref. L-7201) in six different cell lines was performed. Amphiphilic molecule stock solutions were prepared in DMSO as described above and diluted in DMEM to afford a range of concentrations. The solutions of EGFP-mRNA/amphiphilic molecule complexes were freshly prepared prior to the transfection experiments. 35 μL of the corresponding amphiphile were added to 10 μL of a solution of EGFP-mRNA at 10 ng/μL in DMEM. The mixture was shaken for 30 min at room temperature before the addition to the cells. The cell medium was aspirated, and cells were washed with PBS twice. Cells were covered with 39 μL of DMEM and 11 μL of the complex's solution were added to the cells and incubated for 4 h (final concentration of peptide=2.5, 5 and 10 μM; final concentration of EGFP-mRNA=25 ng/well). After the incubation, the medium was replaced by 100 μL of fresh DMEM supplemented with 10% FBS. The total EGFP fluorescence was quantified after 72 h in a well plate reader. Amphiphile transfection efficiency was compared and normalized to Lipofectamine® MessengerMax efficiency (value of 1 in Tables 1-5 and 7; double underlined numbers). All experiments were done in triplicate.
as §1
Tables 14-19 show the mean (triplicates) fluorescence intensity measured after the transfection of EGFP mRNA by different amphiphiles at different concentrations in a variety of cell lines. Background fluorescence values, accounted by untreated control cells, were subtracted for processing.

## Ac-RK*LRRK*L-NH2 (Ac-RK(NHNH2)LRRK(NHNH2)L-NH2; not fully specified; printed as Ac-RK*LRRK*L-NH2; also: K*2,K*6: native or modified lysine (ε-amide to a linker)) [Peptide 7.2]
[1]; Dodecanal, 15 μM
  percentage of gene editing, GFP fluorescence intensity decrease (% of reduction): −18%
Hela cells; HeLa, Dodecanal, 5 μM
  mean luminescent intensity (RLuc pDNA): 2459 RLU
Hela cells; Hela, Myristoleyl, 5 μM
  mean luminescent intensity (RLuc pDNA): −664 RLU
Hela cells; Hela, Myristoleyl, 10 μM
  mean luminescent intensity (RLuc pDNA): −678 RLU
Hela cells; Hela, Myristoleyl, 15 μM
  mean luminescent intensity (RLuc pDNA): −687 RLU
ARPE19 cells; Dodecanal, 2.5 μM
  mean fluorescence intensity (EGFP mRNA): 898
ARPE19 cells; Dodecanal, 5 μM
  mean fluorescence intensity (EGFP mRNA): 436
ARPE19 cells; Dodecanal, 10 μM
  mean fluorescence intensity (EGFP mRNA): 1046
ARPE19 cells; Myristoleyl, 2.5 μM
  mean fluorescence intensity (EGFP mRNA): 2289
ARPE19 cells; Myristoleyl, 5 μM
  mean fluorescence intensity (EGFP mRNA): 1119
ARPE19 cells; Myristoleyl, 10 μM
  mean fluorescence intensity (EGFP mRNA): 1131

## Ac-RRLK*RLLRRLK*RLK*RRL-NH2 (Ac-RRLK(NHNH2)RLLRRLK(NHNH2)RLK(NHNH2)RRL-NH2; not fully specified; printed as Ac-RRLK*RLLRRLK*RLK*RRL-NH2; also: K*4,K*11,K*14: native or modified lysine (ε-amide to a linker)) [Peptide 17.3]
[1]; Dodecanal, 5 μM
  percentage of gene editing, GFP fluorescence intensity decrease (% of reduction): −2%
[1]; Dodecanal, 15 μM
  percentage of gene editing, GFP fluorescence intensity decrease (% of reduction): 22%
[1]; Myristoleyl, 15 μM
  percentage of gene editing, GFP fluorescence intensity decrease (% of reduction): 26%
[1]; Petroselinyl, 5 μM
  percentage of gene editing, GFP fluorescence intensity decrease (% of reduction): −4%
Hela cells; HeLa, Petroselinyl, 10 μM
  mean luminescent intensity (RLuc pDNA): 85712 RLU
Hela cells; Hela, Dodecanal, 10 μM
  mean luminescent intensity (RLuc pDNA): 1535 RLU
Hela cells; Hela, Dodecanal, 15 μM
  mean luminescent intensity (RLuc pDNA): 1856 RLU
Hela cells; Hela, Myristoleyl, 5 μM
  mean luminescent intensity (RLuc pDNA): 309 RLU
Hela cells; Hela, Myristoleyl, 10 μM
  mean luminescent intensity (RLuc pDNA): −392 RLU
Hela cells; Hela, Oleyl, 10 μM
  mean luminescent intensity (RLuc pDNA): 2071 RLU
Hela cells; Hela, Oleyl, 15 μM
  mean luminescent intensity (RLuc pDNA): 2261 RLU
Hela cells; Hela, Palmitoleyl, 5 μM
  mean luminescent intensity (RLuc pDNA): 190106 RLU
Hela cells; Hela, Palmitoleyl, 10 μM
  mean luminescent intensity (RLuc pDNA): 246511 RLU
Hela cells; Hela, Palmitoleyl, 15 μM
  mean luminescent intensity (RLuc pDNA): 163602 RLU
Hela cells; Hela, Petroselinyl, 5 μM
  mean luminescent intensity (RLuc pDNA): 237718 RLU
Hela cells; Hela, Petroselinyl, 15 μM
  mean luminescent intensity (RLuc pDNA): 7153 RLU
ARPE19 cells; Dodecanal, 5 μM
  mean fluorescence intensity (EGFP mRNA): 466
ARPE19 cells; Myristoleyl, 5 μM
  mean fluorescence intensity (EGFP mRNA): 323
ARPE19 cells; Myristoleyl, 10 μM
  mean fluorescence intensity (EGFP mRNA): 393
ARPE19 cells; Petroselinyl, 2.5 μM
  mean fluorescence intensity (EGFP mRNA): 479
ARPE19 cells; Petroselinyl, 5 μM
  mean fluorescence intensity (EGFP mRNA): 351
ARPE19 cells; Petroselinyl, 10 μM
  mean fluorescence intensity (EGFP mRNA): 293

## Ac-RRLK*RLLRRLK*RL-NH2 (Ac-RRLK(NHNH2)RLLRRLK(NHNH2)RL-NH2; not fully specified; printed as Ac-RRLK*RLLRRLK*RL-NH2; also: K*4,K*11: native or modified lysine (ε-amide to a linker)) [Peptide 13.2]
[1]; Oleyl, 5 μM
  percentage of gene editing, GFP fluorescence intensity decrease (% of reduction): −6%

## Ac-RHLK*RHK*RRLK*RH-NH2 (Ac-RHLKRHKRRLKRH-NH2; not fully specified (residues 4, 7, 11); printed as Ac-RHLK*RHK*RRLK*RH-NH2; also: linker on K* not given here) [13(3His)]
[1]; Dodecanal, 5 μM
  percentage of gene editing, GFP fluorescence intensity decrease (% of reduction): −33%
[1]; Myristoleyl, 15 μM
  percentage of gene editing, GFP fluorescence intensity decrease (% of reduction): 0%
[1]; Palmitoleyl, 5 μM
  percentage of gene editing, GFP fluorescence intensity decrease (% of reduction): −9%
[1]; Palmitoleyl, 15 μM
  percentage of gene editing, GFP fluorescence intensity decrease (% of reduction): 14%
[1]; Petroselinyl, 5 μM
  percentage of gene editing, GFP fluorescence intensity decrease (% of reduction): 26%
Hela cells; HeLa, Oleyl, 5 μM
  mean luminescent intensity (RLuc pDNA): 226412 RLU
Hela cells; HeLa, Petroselinyl, 10 μM
  mean luminescent intensity (RLuc pDNA): 115599 RLU
Hela cells; Hela, Myristoleyl, 5 μM
  mean luminescent intensity (RLuc pDNA): −294 RLU
Hela cells; Hela, Myristoleyl, 10 μM
  mean luminescent intensity (RLuc pDNA): −246 RLU
Hela cells; Hela, Myristoleyl, 15 μM
  mean luminescent intensity (RLuc pDNA): −405 RLU
Hela cells; Hela, Oleyl, 10 μM
  mean luminescent intensity (RLuc pDNA): 180751 RLU
Hela cells; Hela, Oleyl, 15 μM
  mean luminescent intensity (RLuc pDNA): 31589 RLU
Hela cells; Hela, Palmitoleyl, 5 μM
  mean luminescent intensity (RLuc pDNA): 8590 RLU
Hela cells; Hela, Petroselinyl, 5 μM
  mean luminescent intensity (RLuc pDNA): 122581 RLU
Hela cells; Hela, Petroselinyl, 15 μM
  mean luminescent intensity (RLuc pDNA): 25022 RLU
ARPE19 cells; Myristoleyl, 5 μM
  mean fluorescence intensity (EGFP mRNA): 393
ARPE19 cells; Petroselinyl, 2.5 μM
  mean fluorescence intensity (EGFP mRNA): 596
ARPE19 cells; Petroselinyl, 5 μM
  mean fluorescence intensity (EGFP mRNA): 384
ARPE19 cells; Petroselinyl, 10 μM
  mean fluorescence intensity (EGFP mRNA): 508

— patent publication US20250304623A1, “PEPTIDES FOR INTRACELLULAR DELIVERY” (UNIVERSIDADE DE SANTIAGO DE COMPOSTELA, priority 2022, published 2025)
